Test results taken from patent US11278629B2, “Methods for improving anti-CD37 immunoconjugate therapy” (Debiopharm International, S.A., priority 2016, dated 2022).

Columns and labels:
lymphoma cell lines [1] = assay: Cell proliferation, MTT assay, fifty-four lymphoma cell lines; format: cell-based; conditions: 72 hours exposure, read-out: median IC50
Excerpt: (§1) Fifty-four lymphoma cell lines (ALCL, anaplastic large cell lines (n=5); CLL, chronic lymphocytic leukemia (n=2); ABC-DLBCL, activated B cell like diffuse large B cell (n=7); GCB-DLBCL, germinal center B cell like diffuse large B cell (n=20); MCL, mantle cell lymphoma (n=10); MZL, marginal zone lymphoma (n=6); PMBCL, Primary Mediastinal Large B-Cell Lymphoma (n=1); SMZL, splenic marginal zone lymphoma (n=3)) were exposed to increasing doses of IMGN529 or to the unconjugated cytotoxic payload DM1 for 72 hours. Cell proliferation was measured using the MTT assay. Apoptosis induction was defined by at least a 1.5-fold increase in caspase 3/7 signal activation with respect to controls using the Promega ApoTox-Glo Triplex Assay. CD37 surface expression was assessed by cytofluorimetry. Gene expression profiling (GEP) was done with the Illumina HumanHT-12 Expression BeadChips on untreated cell lines followed by GSEA (NES>|2|, P<0.05, FDR<0.25) and limma t-test (FC>|1.2|; P<0.05; top 200 up and top 200 down).

lymphoma cell lines [2] = assay: Apoptosis induction, caspase 3/7 activation (Promega ApoTox-Glo Triplex Assay); format: cell-based; conditions: 33/54 cell lines; apoptosis = at least 1.5-fold increase in caspase 3/7 signal vs controls
Excerpt: as §1

Molecule	IC50 (lymphoma cell lines [1]) [nM]	lymphoma cell lines in which apoptosis was induced (lymphoma cell lines [2]) [%]
COc1cc2cc(c1Cl)N(C)C(=O)C[C@H](OC(=O)[C@H](C)N(C)C(=O)CCS)[C@]1(C)O[C@H]1[C@H](C)C1C[C@@](O)(NC(=O)O1)[C@H](OC)/C=C/C=C(\C)C2 [DM1, N^2′-deacetyl-N^2′-(3-mercapto-1-oxopropyl)-maytansine]	0.03	
IMGN529: immunoconjugate containing the huCD37-3 antibody, the SMCC linker, and the DM1 maytansinoid		61
